# Assay results from publication PMC2838930 (Pediatric blood & cancer, 2010).
# Experiments:
# [1] = Valspodar blood concentrations by radioimmunoassay; assay type: in vivo, pediatric patients; conditions: at some point during the infusion
# [2] = not given; remark: listed apart in the source
# [3] = adults with leukemia, with mitoxantrone, etoposide, cytarabine; cited from earlier work
# [4] = during valspodar infusion, resolved after completion, all dose levels
Structure (SMILES),CL0 (baseline clearance) (in vivo) [L/h],Q (inter-compartmental clearance) (in vivo) [L/h],decrease of clearance when combined with valspodar (day 4 with valspodar versus day 1 pre-valspodar) [%],V1 (volume of the central compartment) (in vivo) [L],V2 (volume in the peripheral compartment) (in vivo) [L],valspodar concentration achieved in all patients [1],"patients with cerebellar toxicity (ataxia or dizziness) ([2]; all dose levels, 21 evaluable, one grade 3, two grade 2, two grade 1)","patients with transient hyperbilirubinemia ([2]; all dose levels, evaluable for toxicity)","transient hyperbilirubinemia, median maximum [2, 4] [mg/dL]","transient hyperbilirubinemia, range of maximum [2, 4] [mg/dL]","patients with valspodar infusion-related transaminase elevations ([2]; one grade 1, two grade 2, one grade 3, self-resolved)",maximum tolerated dose (MTD) in adults [3] [mg/kg/day]
O=C1c2c(O)ccc(O)c2C(=O)c2c(NCCNCCO)ccc(NCCNCCO)c21 [mitoxantrone],16.4,8.13,–,–,–,–,–,–,–,–,–,–
COc1cc([C@@H]2c3cc4c(cc3[C@@H](O[C@@H]3O[C@@H]5CO[C@@H](C)O[C@H]5[C@H](O)[C@H]3O)[C@H]3COC(=O)[C@H]23)OCO4)cc(OC)c1O [etoposide],1.52,2.38,60,3.58,3.82,–,–,–,–,–,–,–
"C/C=C/C[C@@H](C)C(=O)[C@H]1C(=O)N[C@@H](C(C)C)C(=O)N(C)CC(=O)N(C)[C@@H](CC(C)C)C(=O)N[C@@H](C(C)C)C(=O)N(C)[C@@H](CC(C)C)C(=O)N[C@@H](C)C(=O)N[C@H](C)C(=O)N(C)[C@@H](CC(C)C)C(=O)N(C)[C@@H](CC(C)C)C(=O)N(C)[C@@H](C(C)C)C(=O)N1C [valspodar, Valspodar]",–,–,–,–,–,"1,000 ng/mL",five,16 of 21,2,0.8 to 6.6,Four,10
